Measurements published in US20230077362A1 (CORTEVA AGRISCIENCE LLC, priority 2019, published 2023).
Where two headings read alike, the source gives them in different places.

How the values were obtained:
Format in all cases: in vivo
[1] = system: Cabbage Looper (Trichoplusia ni) ("CL"), second instar larvae; test: Bioassay on cabbage looper (CL), 128-well diet tray assay; settings: Trichoplusia ni
How it was run: (§1)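 Covered trays were held at 25° C. under a 14:10 light-dark cycle for five to seven days. Percent mortality was then scored in each well, and activity across eight wells was averaged.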

[2] = system: Green Peach Aphid ("GPA") (Myzus persicae), wingless adult and nymph stages; test: Bioassay on green peach aphid (GPA), foliar spray on infested cabbage seedlings; settings: Myzus persicae, foliar, 72 h
Experimental: Certain molecules disclosed in this document were tested against GPA using procedures described in the following example. In the reporting of the results, the “GPA Rating Table” was used (See Table Section).
Cabbage seedlings grown in 3-inch pots, with 2-3 small (3-5 cm) true leaves, were used as test substrate. The seedlings were infested with 20-50 GPA (wingless adult and nymph stages) one day prior to chemical application. Four pots with individual seedlings were used for each treatment. Test compounds (2 mg) were dissolved in 2 mL of acetone/methanol (1:1) solvent, forming stock solutions of 1000 ppm test compound. […] A hand-held aspirator-type sprayer was used for spraying a solution to both sides of […] leaves until runoff. Reference plants (solvent check) were sprayed with the diluent only containing 20% by volume of acetone/methanol (1:1) solvent. Treated plants were held in a holding room for three days at approximately 25° C. and ambient relative humidity (RH) prior to grading. Evaluation was conducted by counting the number of live aphids per plant under a microscope.
Corrected % Control=100*(X−Y)/X • where • X=No. of live aphids on solvent check plants and • Y=No. of live aphids on treated plants
The results are indicated in the table entitled “Table ABC: Biological Results” (See Table Section).

[3] = system: Beet Armyworm (Spodoptera exigua) ("BAW"), second instar larvae; test: Bioassay on beet armyworm (BAW), 128-well diet tray assay; settings: Spodoptera exigua
How it was run: as §1

[4] = read-out: CL (Biological Results, rating)
[5] = read-out: GPA (Biological Results, rating)
[6] = read-out: BAW (Biological Results, rating)

SMILES: Cc1ccc(C(C)C)c(N2C(=O)CS/C2=N\C(=O)Nc2ccc(-c3ncn(-c4ccc(SC(F)(F)F)cc4)n3)cc2Cl)c1 [Compound J231, (Z)-1-(2-Chloro-4-(1-(4-((trifluoromethyl)thio)phenyl)-1H-1,2,4-triazol-3-yl)phenyl)-3-(3-(2-isopropyl-5-methylphenyl)-4-oxothiazolidin-2-ylidene)urea]
- pest or weed control at 50 µg/cm2 [1, 4]: 50 to 100%
- pest or weed control at 200 µg/mL [2, 5]: 0 to 80%
- pest or weed control at 50 µg/cm2 [3, 6]: 50 to 100%

SMILES: COC(C)c1ccc(C)cc1N1C(=O)CS/C1=N\C(=O)Nc1ccc(-c2ncn(-c3cccc(C(F)(F)F)c3)n2)cc1F (stereo not drawn) [Compound J119, (Z)-1-(2-Fluoro-4-(1-(3-(trifluoromethyl)phenyl)-1H-1,2,4-triazol-3-yl)phenyl)-3-(3-(2-(1-methoxyethyl)-5-methylphenyl)-4-oxothiazolidin-2-ylidene)urea]
- pest or weed control at 50 µg/cm2 [1, 4]: 50 to 100%
- pest or weed control at 200 µg/mL [2, 5]: 0 to 80%
- pest or weed control at 50 µg/cm2 [3, 6]: 50 to 100%

SMILES: COc1ccc(-n2cnc(-c3ccc(NC(=O)/N=C4\SCC(=O)N4c4cc(N(C)C)ccc4C(C)C)c(F)c3)n2)cc1 [Compound J146, (Z)-1-(3-(5-(Dimethylamino)-2-isopropylphenyl)-4-oxothiazolidin-2-ylidene)-3-(2-fluoro-4-(1-(4-methoxyphenyl)-1H-1,2,4-triazol-3-yl)phenyl)urea]
- pest or weed control at 50 µg/cm2 [1, 4]: 50 to 100%
- pest or weed control at 200 µg/mL [2, 5]: 0 to 80%
- pest or weed control at 50 µg/cm2 [3, 6]: 50 to 100%

SMILES: CCOc1ccc(N(C)C)cc1N1C(=O)CS/C1=N\C(=O)Nc1ccc(-c2ncn(-c3ccc(OC(F)(F)F)cc3)n2)cc1F [Compound J192, (Z)-1-(3-(5-(Dimethylamino)-2-ethoxyphenyl)-4-oxothiazolidin-2-ylidene)-3-(2-fluoro-4-(1-(4-(trifluoromethoxy)phenyl)-1H-1,2,4-triazol-3-yl)phenyl)urea]
- pest or weed control at 50 µg/cm2 [1, 4]: 50 to 100%
- pest or weed control at 200 µg/mL [2, 5]: 0 to 80%
- pest or weed control at 50 µg/cm2 [3, 6]: 50 to 100%

SMILES: CCCc1ccc(OCC)cc1N1C(=O)CS/C1=N\C(=O)Nc1ccc(-c2ncn(-c3ccc(OC(F)(F)F)cc3)n2)cc1F [Compound J169, (Z)-1-(3-(5-Ethoxy-2-propylphenyl)-4-oxothiazolidin-2-ylidene)-3-(2-fluoro-4-(1-(4-(trifluoromethoxy)phenyl)-1H-1,2,4-triazol-3-yl)phenyl)urea]
- pest or weed control at 50 µg/cm2 [1, 4]: 50 to 100%
- pest or weed control at 200 µg/mL [2, 5]: 0 to 80%
- pest or weed control at 50 µg/cm2 [3, 6]: 50 to 100%

SMILES: Cc1ccc(C(C)C)c(N2C(=O)CS/C2=N\C(=O)Nc2ccc(-c3ncn(-c4cccc(OC(F)(F)F)c4)n3)cc2F)c1 [Compound J143, (Z)-1-(2-Fluoro-4-(1-(3-(trifluoromethoxy)phenyl)-1H-1,2,4-triazol-3-yl)phenyl)-3-(3-(2-isopropyl-5-methylphenyl)-4-oxothiazolidin-2-ylidene)urea]
- pest or weed control at 50 µg/cm2 [1, 4]: 50 to 100%
- pest or weed control at 200 µg/mL [2, 5]: 0 to 80%
- pest or weed control at 50 µg/cm2 [3, 6]: 50 to 100%

SMILES: CC(C)c1cc(F)c(N(C)C)cc1N1C(=O)CS/C1=N\C(=O)Nc1ccc(-c2ncn(-c3ccc(C(F)(F)F)cc3)n2)cc1F [Compound J183, (Z)-1-(3-(5-(Dimethylamino)-4-fluoro-2-isopropylphenyl)-4-oxothiazolidin-2-ylidene)-3-(2-fluoro-4-(1-(4-(trifluoromethyl)phenyl)-1H-1,2,4-triazol-3-yl)phenyl)urea]
- pest or weed control at 50 µg/cm2 [1, 4]: 50 to 100%
- pest or weed control at 200 µg/mL [2, 5]: 0 to 80%
- pest or weed control at 50 µg/cm2 [3, 6]: 50 to 100%

SMILES: Cc1ccc(OCC(F)(F)F)c(N2C(=O)CS/C2=N\C(=O)Nc2ccc(-c3ncn(-c4cccc(C(F)(F)F)c4)n3)cc2F)c1 [Compound J122, (Z)-1-(2-Fluoro-4-(1-(3-(trifluoromethyl)phenyl)-1H-1,2,4-triazol-3-yl)phenyl)-3-(3-(5-methyl-2-(2,2,2-trifluoroethoxy)phenyl)-4-oxothiazolidin-2-ylidene)urea]
- pest or weed control at 50 µg/cm2 [1, 4]: 50 to 100%
- pest or weed control at 200 µg/mL [2, 5]: 0 to 80%
- pest or weed control at 50 µg/cm2 [3, 6]: 50 to 100%

SMILES: Cc1ccc(COCC(F)(F)F)c(N2C(=O)CS/C2=N\C(=O)Nc2ccc(-c3ncn(-c4ccc(S(=O)(=O)C(F)(F)F)cc4)n3)cc2F)c1 [Compound J363, (Z)-1-(2-Fluoro-4-(1-(4-((trifluoromethyl)sulfonyl)phenyl)-1H-1,2,4-triazol-3-yl)phenyl)-3-(3-(5-methyl-2-((2,2,2-trifluoroethoxy)methyl)phenyl)-4-oxothiazolidin-2-ylidene)urea]
- pest or weed control at 50 µg/cm2 ([1]; read-out: CL rating): 50 to 100%
- pest or weed control at 200 µg/mL ([2]; read-out: GPA rating): 0 to 80%
- pest or weed control at 50 µg/cm2 ([3]; read-out: BAW rating): 50 to 100%

SMILES: Cc1cc(-c2ncn(-c3ccc(OC(F)(F)F)cc3)n2)ccc1NC(=O)/N=C1\SCC(=O)N1c1ccc(N(C)C)cc1C(C)C [Compound J113, (Z)-1-(3-(4-(Dimethylamino)-2-isopropylphenyl)-4-oxothiazolidin-2-ylidene)-3-(2-methyl-4-(1-(4-(trifluoromethoxy)phenyl)-1H-1,2,4-triazol-3-yl)phenyl)urea]
- pest or weed control at 50 µg/cm2 [1, 4]: 50 to 100%
- pest or weed control at 200 µg/mL [2, 5]: 0 to 80%
- pest or weed control at 50 µg/cm2 [3, 6]: 50 to 100%

SMILES: CC(C)c1ccc(N(C)C)cc1N1C(=O)CS/C1=N\C(=O)Nc1ccc(-c2ncn(-c3ccc(S(=O)(=O)C(F)(F)F)cc3)n2)cc1F [Compound J364, (Z)-1-(3-(5-(Dimethylamino)-2-isopropylphenyl)-4-oxothiazolidin-2-ylidene)-3-(2-fluoro-4-(1-(4-((trifluoromethyl)sulfonyl)phenyl)-1H-1,2,4-triazol-3-yl)phenyl)urea]
- pest or weed control at 50 µg/cm2 ([1]; read-out: CL rating): 50 to 100%
- pest or weed control at 200 µg/mL ([2]; read-out: GPA rating): 0 to 80%
- pest or weed control at 50 µg/cm2 ([3]; read-out: BAW rating): 50 to 100%

SMILES: COC(C)c1ccccc1N1C(=O)CS/C1=N\C(=O)Nc1ccc(-c2ncn(-c3ccc(OC(F)(F)F)cc3)n2)cc1F (stereo not drawn) [Compound J87, (Z)-1-(2-Fluoro-4-(1-(4-(trifluoromethoxy)phenyl)-1H-1,2,4-triazol-3-yl)phenyl)-3-(3-(2-(1-methoxyethyl)phenyl)-4-oxothiazolidin-2-ylidene)urea]
- pest or weed control at 50 µg/cm2 [1, 4]: 50 to 100%
- pest or weed control at 200 µg/mL [2, 5]: 0 to 80%
- pest or weed control at 50 µg/cm2 [3, 6]: 50 to 100%

SMILES: CCOCc1ccc(C)cc1N1C(=O)CS/C1=N\C(=O)Nc1ccc(-c2cn(-c3ccc(S(=O)(=O)C(F)(F)F)cc3)cn2)cc1F [Compound J646, (Z)-1-(3-(2-(Ethoxymethyl)-5-methylphenyl)-4-oxothiazolidin-2-ylidene)-3-(2-fluoro-4-(1-(4-((trifluoromethyl)sulfonyl)phenyl)-1H-imidazol-4-yl)phenyl)urea]
- pest or weed control at 50 µg/cm2 ([1]; read-out: CL rating): 50 to 100%
- pest or weed control at 200 µg/mL ([2]; read-out: GPA rating): 0 to 80%
- pest or weed control at 50 µg/cm2 ([3]; read-out: BAW rating): 50 to 100%

SMILES: CC(C)c1ccc(N(C)C)cc1N1C(=O)CS/C1=N\C(=O)Nc1ccc(-c2ncn(-c3ccc(OC(F)(F)F)cc3)n2)cc1C(F)(F)F [Compound J116, (Z)-1-(3-(5-(Dimethylamino)-2-isopropylphenyl)-4-oxothiazolidin-2-ylidene)-3-(4-(1-(4-(trifluoromethoxy)phenyl)-1H-1,2,4-triazol-3-yl)-2-(trifluoromethyl)phenyl)urea]
- pest or weed control at 50 µg/cm2 [1, 4]: 50 to 100%
- pest or weed control at 200 µg/mL [2, 5]: 0 to 80%
- pest or weed control at 50 µg/cm2 [3, 6]: 50 to 100%

SMILES: Cc1ccc(OCCC(F)(F)F)c(N2C(=O)CS/C2=N\C(=O)Nc2ccc(-c3ncn(-c4cccc(C(F)(F)F)c4)n3)cc2F)c1 [Compound J142, (Z)-1-(2-Fluoro-4-(1-(3-(trifluoromethyl)phenyl)-1H-1,2,4-triazol-3-yl)phenyl)-3-(3-(5-methyl-2-(3,3,3-trifluoropropoxy)phenyl)-4-oxothiazolidin-2-ylidene)urea]
- pest or weed control at 50 µg/cm2 [1, 4]: 50 to 100%
- pest or weed control at 200 µg/mL [2, 5]: 0 to 80%
- pest or weed control at 50 µg/cm2 [3, 6]: 50 to 100%
